One data set has as its target T1, EcGyrB (Escherichia coli, UniProt P0AES6).
T1 construct: gene gyrB
The data set is described as follows: native PAGE, nucleotide-induced dimerisation ([…] AMPPNP). It is filed as binding.

Data set [1] relates to Nc1ncnc2c1ncn2[C@@H]1O[C@H](COP(=O)(O)OP(=O)(O)OP(=O)(O)O)[C@@H](O)[C@H]1O. The data set can be described thus: purified protein. Conditions: Mg2+.

Turning to `Nc1ncnc2c1ncn2[C@@H]1O[C@H](CO[P@](=O)(O)O[P@](=O)(O)NP(=O)(O)O)[C@@H](O)[C@H]1O` [AMPPNP], the “native PAGE, nucleotide-induced dimerisation (4 mM AMPPNP)” value at EcGyrB was “This dimerisation pattern (monomer in the absence of nucleotide, dimer in the presence) is the same as for EcGyrB”.

With EcGyrB (Escherichia coli K-12), the Km in data set [1] turned out to be 540 ± 50 µM.

As a reminder, the Km is the substrate concentration at which the rate is half of its maximum.

(Values after article PMC4585971, “Functional Analyses of the Toxoplasma gondii DNA Gyrase Holoenzyme: A Janus Topoisomerase with Supercoiling and Decatenation Abilities” (Scientific Reports, 2015).)
